{"source": "patent US20210289794A1", "about": "“COMPOSITIONS AND RELATED METHODS FOR AGRICULTURE” (Flagship Pioneering Innovations V, Inc., priority 2018, published 2021)", "test_system": "Candidatus Pantoea carbekii", "assay": "Quantification of P. carbekii titers by RT-qPCR in H. halys nymphs hatched from treated eggs", "assay_type": "in vivo, Halyomorpha halys", "conditions": "for levels of P. carbekii (symbiont levels per host; ratio of P. carbekii dnaK to H. halys 60s expression): Example 5: egg mass treatment, late 2nd instars, vs water control, FIG. 5; for levels of P. carbekii (ratio of P. carbekii dnaK to H. halys 60s expression): third instars collected, vs negative control", "protocol": "Total RNA was extracted from nymphs using total RNA isolation and purification kits (both from Thermo Fisher Scientific), and the extracted RNA was eluted in 100 μL water. […] Each of the PCR mixtures was 10 μL in volume. RT-qPCR was performed using a PCR amplification ramp of 1.6° C./s and the following conditions: 1) 48° C. for 30 min; 2) 95° C. for 10 minutes; 3) 95° C. for 15 seconds; 4) 55° C. for 30 seconds; 5) repeat steps 3-4 40×, 6); 95° C. for 15 seconds; 7) 55° C. for 1 minute; 8) ramp change to 0.15° C./s; 9) 95° C. for 1 second. RT-qPCR data was analyzed using analytic software (Thermo Fisher Scientific).\nWorking concentrations of the PHA synthesis inhibitors (vanillin, levulinic acid, acrylic acid (AA), and 2-bromooctanoic acid (2BA)) were made up to 100 μg/ml in water. The solutions of PHA inhibitors were spiked with a non-ionic wetting solution to a final concentration of 0.025% to increase the wettability and spreading of the agents on the eggs. As a negative control, no agents were added to the 0.025% non-ionic wetting solution, and as a positive control, 100 μg/ml of the antibiotic rifamycin S was used. Egg masses on leaf disks were removed from the colony in a single day during peak egg production. Each egg mass was then placed in a container with a paper towel at the bottom, and a tube of water plugged with cotton was provided as a water source for the hatchlings. 100 μl of the agent was pipetted onto the eggs to wet them completely. This allowed the agent to interact directly with the bacteria before the bacteria was able to colonize the host. Once the 1st instar hatchlings molted to the 2nd instar stage, food was provided in the form of 500 mg diet pellets (see “Halyomorpha halys lab colony rearing and maintenance” above). Late 2nd instars were collected and frozen to extract DNA to assay for the symbiont levels, as described in Example 4. […]", "key": {"[1]": {"conditions": "100 μg/ml in water with 0.025% non-ionic wetting solution, 100 μl"}, "[2]": {"conditions": "Example 6: egg mass treatment, 100 μg/ml in water with 0.025% Silwet L-77, 100 μl, FIG. 6"}}, "note": "Peptide text beside a SMILES is read from it."}
{"smiles": "CO[C@H]1/C=C/O[C@@]2(C)Oc3c(C)c(O)c4c(c3C2=O)C(=O)C=C(NC(=O)/C(C)=C\\C=C\\[C@H](C)[C@H](O)[C@@H](C)[C@@H](O)[C@@H](C)[C@H](OC(C)=O)[C@@H]1C)C4=O", "note": "[Rifamycin S]", "values": [{"measurement": "levels of P. carbekii (symbiont levels per host; ratio of P. carbekii dnaK to H. halys 60s expression)", "setting": "[1]", "result": "significantly lower"}, {"measurement": "levels of P. carbekii (ratio of P. carbekii dnaK to H. halys 60s expression)", "setting": "[2]", "result": "significantly lower"}, {"measurement": "levels of P. carbekii (ratio of P. carbekii dnaK to H. halys 60s expression)", "setting": "Example 7: egg mass treatment, 100 μg/ml in water with 0.025% non-ionic wetting solution, 100 μl, FIG. 7", "result": "significantly lower"}]}
{"smiles": "CC(=O)CCC(=O)O", "note": "[levulinic acid]", "values": [{"measurement": "levels of P. carbekii (symbiont levels per host; ratio of P. carbekii dnaK to H. halys 60s expression)", "setting": "[1]", "result": "reduction in the symbiont levels per host"}]}
{"smiles": "CC[C@H](C)[C@H](N)C1=N[C@H](C(=O)N[C@@H](CC(C)C)C(=O)N[C@H](CCC(=O)O)C(=O)N[C@H](C(=O)N[C@H]2CCCCNC(=O)[C@H](CC(N)=O)NC(=O)[C@@H](CC(=O)O)NC(=O)[C@H](Cc3cnc[nH]3)NC(=O)[C@@H](Cc3ccccc3)NC(=O)[C@H]([C@@H](C)CC)NC(=O)[C@@H](CCCN)NC2=O)[C@@H](C)CC)CS1", "note": "[bacitracin] (HELM PEPTIDE1{[CC[C@H](C)[C@H](N)C1=N[C@H](C(=O)[*:2])CS1].L.[dE].I.K.[NCCC[C@@H](N[*:1])C(=O)[*:2]].I.[dF].H.[dD].N}$PEPTIDE1,PEPTIDE1,5:R3-11:R2$$$V2.0)", "values": [{"measurement": "levels of P. carbekii (ratio of P. carbekii dnaK to H. halys 60s expression)", "setting": "[2]", "result": "significantly lower"}]}
{"smiles": "CCCCCCC(Br)C(=O)O", "note": "(centres unmarked) [2-bromooctanoic acid]", "values": [{"measurement": "levels of P. carbekii (symbiont levels per host; ratio of P. carbekii dnaK to H. halys 60s expression)", "setting": "[1]", "result": "reduction in the symbiont levels per host"}]}
{"smiles": "COc1cc(C=O)ccc1O", "note": "[vanillin]", "values": [{"measurement": "levels of P. carbekii (symbiont levels per host; ratio of P. carbekii dnaK to H. halys 60s expression)", "setting": "[1]", "result": "reduction in the symbiont levels per host"}]}
{"smiles": "C=CC(=O)O", "note": "[acrylic acid]", "values": [{"measurement": "levels of P. carbekii (symbiont levels per host; ratio of P. carbekii dnaK to H. halys 60s expression)", "setting": "[1]", "result": "reduction in the symbiont levels per host"}]}
